Bridge positions count the residues as written; N and C are the ends. Square brackets hold non-standard residues; d marks the D form. Peptide text beside a SMILES is read from it. * marks the point of attachment. Benzoyl(4-Ph) = O=C(c1ccc(-c2ccccc2)cc1)*; Dab = NCC[C@H](N)C(=O)O; Dap = NC[C@H](N)C(=O)O
Assays:
[1] = Cytotoxicity assay (LDH release), hRPTEC; format: cell-based, human; conditions: human
Outline: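 hRPTEC grown 72 h in REGM, then exposed to compounds at 100, 67, 44, 30, 20 and 13 micromolar for 24 h at 37° C, 5% CO2. LDH released into supernatant measured; TC50 (micromolar) derived. Compounds tested as trifluoroacetate salts unless otherwise noted.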

[2] = test system: PA-1646, polymyxin-resistant clinical isolate of Pseudomonas aeruginosa; format: cell-based; conditions: PA-1646, polymyxin-resistant clinical isolate of
Outline: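 Broth dilution MIC and bactericidal (MBC) testing per CLSI methods (M7-A8, M100-S20, M26-A) against polymyxin-resistant clinical P. aeruginosa isolate PA-1646. Compounds tested as trifluoroacetate salts, one as sulfate salt; values in mg/L.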

[3] = test system: EC-1, mouse virulent strain of Escherichia coli; format: cell-based; conditions: E. coli EC-1; overnight incubation, lower of duplicate values; trifluoroacetate salt (Example 1 and PMB sulfate)
Outline: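 Broth dilution per CLSI with 2-fold concentration steps and overnight incubation. MIC is the lowest concentration visibly inhibiting growth versus drug-free control, run in duplicate with the lower value reported. Duplicates differing by >2-fold were repeated, and control strains and reference compounds had to fall within range.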

[4] = test system: AB-1649, polymyxin-resistant clinical isolate of Acinetobacter baumannii; format: cell-based; conditions: AB-1649, polymyxin-resistant clinical isolate of
Outline: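 MIC and MBC were measured by CLSI broth dilution methods (M7-A8, M100-S20, M26-A) against a polymyxin-resistant clinical isolate and reported in mg/L. Compounds were tested as trifluoroacetate salts, with one exception tested as the sulfate.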

[5] = test system: Pseudomonas aeruginosa strain PA01; format: cell-based; conditions: strain
Outline: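 CLSI broth dilution against P. aeruginosa PA01 with two-fold concentration steps and overnight incubation; MIC is lowest concentration visibly inhibiting growth versus drug-free control, in mg/L. Compounds tested as trifluoroacetate salts, in duplicate, lower value reported if within 2-fold; control organisms and reference compounds included.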

[6] = test system: AB-3167, clinical isolate of Acinetobacter baumannii; format: cell-based; conditions: AB-3167, clinical isolate of
Outline: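 Broth dilution MIC per CLSI (M7-A8, M100-S20, M26-A for bactericidal), 2-fold dilution series, overnight incubation, visual read of lowest concentration inhibiting growth versus drug-free control. Duplicates run; lower value reported if within 2-fold, otherwise repeated. Compounds tested as trifluoroacetate salts; QC strains and reference compounds required in range.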

[7] = test system: AB-1649, polymyxin-resistant clinical isolate of Acinetobacter baumannii; format: cell-based; conditions: AB-1649, polymyxin-resistant clinical isolate of; remark: listed apart in the source
Outline: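 Broth dilution MIC per CLSI against the polymyxin-resistant A. baumannii isolate, 2-fold dilutions, overnight incubation, visual read of lowest concentration inhibiting growth. Run in duplicate, lower value reported when within 2-fold; MBC per CLSI M26-A guideline.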

[8] = test system: PA-1646, polymyxin-resistant clinical isolate of Pseudomonas aeruginosa; format: cell-based; conditions: PA-1646, polymyxin-resistant clinical isolate of; remark: listed apart in the source
Outline: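 Broth dilution MIC per CLSI with 2-fold concentration steps, read visually after overnight incubation as lowest concentration inhibiting growth; duplicates within 2-fold, lower value reported, with QC strains and reference compounds. Compounds tested as trifluoroacetate salts, polymyxin B as sulfate.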

SMILES: CC(C)C[C@@H]1NC(=O)[C@@H](Cc2ccccc2)NC(=O)[C@H](CCN)NC(=O)[C@@H](NC(=O)[C@H](CN)NC(=O)[C@@H](NC(=O)[C@H](CCN)NC(=O)c2ccc(-c3ccccc3)cc2)[C@@H](C)O)CCNC(=O)[C@H]([C@@H](C)O)NC(=O)[C@H](CCN)NC(=O)[C@H](CCN)NC1=O [Example 45] ({Benzoyl(4-Ph)}-[Dab]T[Dap][Dab][Dab][dF]L[Dab][Dab]T; lactam 4-C)
- CC50 at 24 h [1]: 28 µM
- PA-1646 MBC [2]: 1 µg/mL
- EC-1 MIC [3]: 0.25 µg/mL
- AB-1649 MBC [4]: 1 µg/mL
- PA01 MIC [5]: 0.5 µg/mL
- AB-3167 MIC [6]: 0.25 µg/mL
- AB-1649 MIC [7]: 1 µg/mL
- PA-1646 MIC [8]: 0.5 µg/mL

From US20120316105A1, “Polymyxin Derivates Useful As Antibacterial Agents” (priority 2011, published 2012)
